For assay [1], the target named is T1, human amylin receptor (amylin 3(a) receptor: human calcitonin receptor + RAMP-3) (Homo sapiens, UniProt O60896+P30988).
T1 construct: expressed in transfected cells
T1 sequence (P30988 25-474): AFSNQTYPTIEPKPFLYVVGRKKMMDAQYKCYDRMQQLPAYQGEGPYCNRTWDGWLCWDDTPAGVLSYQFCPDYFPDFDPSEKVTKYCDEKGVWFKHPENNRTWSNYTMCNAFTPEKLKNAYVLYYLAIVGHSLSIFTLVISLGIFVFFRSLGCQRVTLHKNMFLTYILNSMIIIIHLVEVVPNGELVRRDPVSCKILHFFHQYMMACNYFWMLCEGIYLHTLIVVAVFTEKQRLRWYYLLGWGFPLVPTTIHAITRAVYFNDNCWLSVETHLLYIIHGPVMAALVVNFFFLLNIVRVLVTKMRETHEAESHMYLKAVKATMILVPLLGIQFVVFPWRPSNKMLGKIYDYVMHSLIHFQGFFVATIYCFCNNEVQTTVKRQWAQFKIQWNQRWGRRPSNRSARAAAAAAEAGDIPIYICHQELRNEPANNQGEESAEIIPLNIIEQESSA
T1 sequence (O60896 24-148 partner): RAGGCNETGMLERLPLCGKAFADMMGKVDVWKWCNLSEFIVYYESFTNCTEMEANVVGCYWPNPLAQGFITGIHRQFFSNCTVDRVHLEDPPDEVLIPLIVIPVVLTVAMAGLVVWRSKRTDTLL
As to the kind of experiment: Assay (II)a functional assay, human amylin receptor (CRE luciferase, BHK cells). Format: cell-based. Conditions: for EC50: functional assay, human amylin receptor, read-out: hAmylin-R funct. EC50.

In assay [2] the target is T2, human amylin receptor (Homo sapiens, UniProt O60896+P30988).
T2 construct: expressed in transfected cells
T2 sequence (P30988 25-474): T1 sequence (P30988 25-474)
T2 sequence (O60896 24-148 partner): T1 sequence (O60896 24-148 partner)
As to the kind of experiment: Assay (V) binding to the human amylin receptor (SPA, 125I-rat amylin). Conditions: human amylin receptor membranes, SPA; read-out: hAmylin-R bind IC50. In outline:
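SPA competition binding on membranes from Amylin 3(a)/CRE-luc cells, 35 ng/μL membranes with 0.05 mg/well beads. Buffer 50 mM Hepes pH 7.4, 1 mM CaCl2, 5 mM MgCl2, 0.1% OA, 0.02% Tween20. IC50 from one-site competition fit as affinity measure.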

Assay [3] deals with T3, human calcitonin receptor (Homo sapiens, UniProt P30988).
T3 construct: expressed in transfected cells
T3 sequence (P30988 25-474): T1 sequence (P30988 25-474)
As to the kind of experiment: Assay (VII) binding to the human calcitonin receptor (SPA, 125I-Calcitonin).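 Note: cell membranes coupled to SPA beads, competitive displacement read by scintillation counting, IC50 derived from a one-site competition fit as a measure of receptor affinity.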 Conditions: read-out: hCTR bind IC50.

Assay [4] addresses T3, human calcitonin receptor. As to the kind of experiment: Assay (II)a functional assay, human calcitonin receptor (CRE luciferase, BHK cells).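 Note: luminescence from a CRE-driven luciferase reporter, read by single photon counting after cells were exposed to test samples for 3 h at 37 °C under 5% CO2.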 Format: cell-based. Conditions: read-out: hCTR funct. EC50.
[5] abbreviates: Table 6, human functional selectivity (hCTR EC50 / hAmylin-R EC50).

Numbered stars: 1 amine (or outer) side, 2 acyl side, 3 side chain; on linkers, the order of the positions; unused ones are H or OH. Bridge positions count the residues as written; N and C are the ends. Side chains are listed from the residue outwards. Peptide text beside a SMILES is read from it. * marks the point of attachment. C20 diacid = O=C(O)CCCCCCCCCCCCCCCCCCC(=O)*; γGlu = O=C(O)[C@H](CCC(=O)[*:2])N[*:1]; AEEA = NCCOCCOCC(=O)O

One may read the EC50 as the concentration giving half of the maximal effect. The IC50 is the concentration at which inhibition is half-maximal. For the molecule `CC[C@H](C)[C@H](NC(=O)[C@H](C)NC(=O)CNC(=O)[C@H](Cc1ccccc1)NC(=O)[C@H](CC(N)=O)NC(=O)[C@@H]1CCCN1C(=O)[C@H](CO)NC(=O)[C@H](CO)NC(=O)[C@H](Cc1c[nH]cn1)NC(=O)[C@H](CCCNC(=N)N)NC(=O)[C@H](CC(C)C)NC(=O)[C@H](Cc1ccccc1)NC(=O)[C@H](CC(N)=O)NC(=O)[C@H](C)NC(=O)[C@H](CC(C)C)NC(=O)[C@H](CCCNC(=N)N)NC(=O)[C@H](CCC(N)=O)NC(=O)[C@@H](NC(=O)[C@H](C)NC(=O)[C@@H]1CSSC[C@H](NC(=O)[C@@H](N)CCCCNC(=O)COCCOCCNC(=O)COCCOCCNC(=O)CC[C@H](NC(=O)CCCCCCCCCCCCCCCCCCC(=O)O)C(=O)O)C(=O)N[C@@H](CC(N)=O)C(=O)N[C@@H]([C@@H](C)O)C(=O)N[C@@H](C)C(=O)N[C@@H]([C@@H](C)O)C(=O)N1)[C@@H](C)O)C(=O)N1CCC[C@H]1C(=O)N[C@@H](CO)C(=O)N[C@@H](CO)C(=O)N[C@H](C(=O)N1CCC[C@H]1C(=O)N[C@H](C(=O)NCC(=O)N[C@@H](CO)C(=O)N[C@@H](CC(N)=O)C(=O)N[C@H](C(=O)N[C@@H](Cc1ccc(O)cc1)C(N)=O)[C@@H](C)O)C(C)C)[C@@H](C)O` [Example 96], the “Ratio hCT/hAmylin funct.” value in assay [1] (setting [5]) is 21.0; in assay [1] (Table 6a, human functional selectivity (hCTR EC50 / hAmylin-R EC50), at least 5) it was 21.0; in assay [1] (Table 6j, hCTR funct. EC50 / hAmylin-R funct. EC50), 21.0; in assay [1] (Table 6k, hCTR funct. EC50 / hAmylin-R funct. EC50), 21.0. The concentration giving a half-maximal response (EC50) in assay [1] was 181 pM; in assay [4] it was 3800 pM. Further, the IC50 stood at 166 pM in assay [2] and 13200 pM in assay [3].
As to `CC[C@H](C)[C@H](NC(=O)[C@H](C)NC(=O)CNC(=O)[C@H](Cc1ccccc1)NC(=O)[C@H](CC(N)=O)NC(=O)[C@@H]1CCCN1C(=O)[C@H](CO)NC(=O)[C@H](CO)NC(=O)[C@H](Cc1c[nH]cn1)NC(=O)[C@H](CCCNC(=N)N)NC(=O)[C@H](CC(C)C)NC(=O)[C@H](Cc1ccccc1)NC(=O)[C@H](CC(N)=O)NC(=O)[C@H](C)NC(=O)[C@H](CC(C)C)NC(=O)[C@H](CCCNC(=N)N)NC(=O)[C@H](CCC(N)=O)NC(=O)[C@@H](NC(=O)[C@H](C)NC(=O)[C@@H]1CSSC[C@H](NC(=O)[C@@H](N)CCCCNC(=O)COCCOCCNC(=O)COCCOCCNC(=O)CC[C@H](NC(=O)CCCCCCCCCCCCCCCCCCC(=O)O)C(=O)O)C(=O)N[C@@H](CC(N)=O)C(=O)N[C@@H]([C@@H](C)O)C(=O)N[C@@H](C)C(=O)N[C@@H]([C@@H](C)O)C(=O)N1)[C@@H](C)O)C(=O)N1CCC[C@H]1C(=O)N[C@@H](CO)C(=O)N[C@@H](CO)C(=O)N[C@H](C(=O)N[C@@H](CC(N)=O)C(=O)N[C@H](C(=O)NCC(=O)N[C@@H](CO)C(=O)N[C@@H](CCC(=O)O)C(=O)N[C@H](C(=O)N[C@@H](Cc1ccc(O)cc1)C(N)=O)[C@@H](C)O)C(C)C)[C@@H](C)O` [Example 25], the EC50 was determined as 217 pM in assay [1] and 10000 pM in assay [4]. Moreover, the IC50 was 768 pM in assay [2] and 43400 pM in assay [3].
Taken in the same sequence, the figures for `CC[C@H](C)[C@H](NC(=O)[C@H](C)NC(=O)CNC(=O)[C@H](Cc1ccccc1)NC(=O)[C@H](CC(N)=O)NC(=O)[C@@H]1CCCN1C(=O)[C@H](CO)NC(=O)[C@H](CO)NC(=O)[C@H](Cc1c[nH]cn1)NC(=O)[C@H](CCCNC(=N)N)NC(=O)[C@H](CC(C)C)NC(=O)[C@H](Cc1ccccc1)NC(=O)[C@H](Cc1c[nH]cn1)NC(=O)[C@H](C)NC(=O)[C@H](CC(C)C)NC(=O)[C@H](CCCNC(=N)N)NC(=O)[C@H](CCC(N)=O)NC(=O)[C@@H](NC(=O)[C@H](C)NC(=O)[C@@H]1CSSC[C@H](NC(=O)[C@@H](N)CCCCNC(=O)COCCOCCNC(=O)CC[C@H](NC(=O)CCCCCCCCCCCCCCCCCCC(=O)O)C(=O)O)C(=O)N[C@@H](CC(N)=O)C(=O)N[C@@H]([C@@H](C)O)C(=O)N[C@@H](C)C(=O)N[C@@H]([C@@H](C)O)C(=O)N1)[C@@H](C)O)C(=O)N1CCC[C@H]1C(=O)N[C@@H](CO)C(=O)N[C@@H](CO)C(=O)N[C@H](C(=O)N1CCC[C@H]1C(=O)N[C@H](C(=O)NCC(=O)N[C@@H](CO)C(=O)N[C@@H](CC(N)=O)C(=O)N[C@H](C(=O)N[C@@H](Cc1ccc(O)cc1)C(N)=O)[C@@H](C)O)C(C)C)[C@@H](C)O` [Example 61] (H-K([AEEA-γGlu-C20 diacid])CNTATCATQRLAHFLRHSSPNFGAIPSSTPVGSNTY-NH2; disulfide 2-7) were 51 pM, 554 pM, 122 pM and 8110 pM.
For the molecule `CC[C@H](C)[C@H](NC(=O)[C@H](C)NC(=O)CNC(=O)[C@H](Cc1ccccc1)NC(=O)[C@H](CC(N)=O)NC(=O)[C@@H]1CCCN1C(=O)[C@H](CO)NC(=O)[C@H](CO)NC(=O)[C@H](Cc1c[nH]cn1)NC(=O)[C@H](CCCNC(=N)N)NC(=O)[C@H](CC(C)C)NC(=O)[C@H](Cc1ccccc1)NC(=O)[C@H](Cc1c[nH]cn1)NC(=O)[C@H](C)NC(=O)[C@H](CC(C)C)NC(=O)[C@H](CCCNC(=N)N)NC(=O)[C@H](CCC(N)=O)NC(=O)[C@@H](NC(=O)[C@H](C)NC(=O)[C@@H]1CSSC[C@H](NC(=O)[C@H](CCCNC(=N)N)NC(=O)CNC(=O)CC[C@H](NC(=O)CCCCCCCCCCCCCCCCCCC(=O)O)C(=O)O)C(=O)N[C@@H](CC(N)=O)C(=O)N[C@@H]([C@@H](C)O)C(=O)N[C@@H](C)C(=O)N[C@@H]([C@@H](C)O)C(=O)N1)[C@@H](C)O)C(=O)N1CCC[C@H]1C(=O)N[C@@H](CO)C(=O)N[C@@H](CO)C(=O)N[C@H](C(=O)N[C@@H](CC(N)=O)C(=O)N[C@H](C(=O)NCC(=O)N1CCC[C@H]1C(=O)N[C@@H](CC(N)=O)C(=O)N[C@H](C(=O)N[C@@H](Cc1ccc(O)cc1)C(N)=O)[C@@H](C)O)C(C)C)[C@@H](C)O` [Example 102] ({C20 diacid-γGlu}-GRCNTATCATQRLAHFLRHSSPNFGAIPSSTNVGPNTY-NH2; disulfide 3-8), the “Ratio hCT/hAmylin funct.” value in assay [1] (setting [5]) worked out at 2.9. In addition, the EC50 amounted to 62 pM in assay [1] and 179 pM in assay [4]. Moreover, the IC50 in assay [2] came to 217 pM; in assay [3], 7860 pM.
Regarding `CC[C@H](C)[C@H](NC(=O)[C@H](C)NC(=O)CNC(=O)[C@H](Cc1ccccc1)NC(=O)[C@H](CC(N)=O)NC(=O)[C@@H]1CCCN1C(=O)[C@H](CO)NC(=O)[C@H](CO)NC(=O)[C@H](Cc1c[nH]cn1)NC(=O)[C@H](CCCNC(=N)N)NC(=O)[C@H](CC(C)C)NC(=O)[C@H](Cc1ccccc1)NC(=O)[C@H](CC(N)=O)NC(=O)[C@H](C)NC(=O)[C@H](CC(C)C)NC(=O)[C@H](CCCNC(=N)N)NC(=O)[C@H](CCC(N)=O)NC(=O)[C@@H](NC(=O)[C@H](C)NC(=O)[C@@H]1CSSC[C@H](NC(=O)[C@@H](N)CCCCNC(=O)CC[C@H](NC(=O)CCCCCCCCCCCCC(=O)O)C(=O)O)C(=O)N[C@@H](CC(N)=O)C(=O)N[C@@H]([C@@H](C)O)C(=O)N[C@@H](C)C(=O)N[C@@H]([C@@H](C)O)C(=O)N1)[C@@H](C)O)C(=O)N1CCC[C@H]1C(=O)N[C@@H](CO)C(=O)N[C@@H](CO)C(=O)N[C@H](C(=O)N[C@@H](CC(N)=O)C(=O)N[C@H](C(=O)NCC(=O)N[C@@H](Cc1c[nH]cn1)C(=O)N[C@@H](CC(N)=O)C(=O)N[C@H](C(=O)N[C@@H](Cc1ccc(O)cc1)C(N)=O)[C@@H](C)O)C(C)C)[C@@H](C)O` [Example 112], the EC50 in assay [1] was 28 pM; in assay [4], 1090 pM. Also, the IC50 is 1040 pM in assay [2] and 24300 pM in assay [3].

The values are drawn from patent publication US8575091B1, “Amylin analogues and pharmaceutical compositions thereof” (Novo Nordisk A/S, priority 2012, dated 2013).
